The IC50 is the midpoint of a concentration-inhibition curve. A word on the Kd: it is the concentration at which binding is half-saturated.

Values after ≈ are worked out from the molar mass of the structure shown. Values joined by “and” are separate entries in the source; they are usually repeats but may differ in a detail not shown here. Equal values may be shown once. Peptide text beside a SMILES is read from it. * marks the point of attachment. Cbz = O=C(OCc1ccccc1)* A value given as a limit tells only on which side of the number the result lay.

In data set [1] the test system is K. pneumoniae urease activity (whole cell). Description: Checkerboard analysis of Zn-AMA and AHA on urease activity. It is filed as cell-based, Klebsiella pneumoniae. The settings on record: Zn-AMA 0 μM. As for the experimental part: To guide our exploration of the mode of action of Zn-AMA, we investigated whether a chemical-chemical interaction occurs with the urease inhibitor AHA. […] We subsequently performed inductively coupled plasma mass spectrometry (ICP-MS) analyses to evaluate the intracellular Ni^2+ and Zn^2+ content of K. pneumoniae.
K. pneumoniae whole-cell urease activity was determined with artificial urine containing 0.2% (w/v) casamino acids and 0.01% (w/v) phenol red in 96-well plates. For the growth of S. aureus in artificial urine, the medium was supplemented with 10% LB. After 20–24 hours of growth, bacteria were removed using 0.45 μm filter plates, and the final A550 of the medium was measured using a plate reader.
FIG S7 Evaluation of Zn-AMA as a direct inhibitor of urease. A) Checkerboard analysis of Zn-AMA and AHA on urease activity of K.
pneumoniae after growth for 24 h at 37 °C artificial urine. pH is represented by the color scale determined with phenol red. […]

Data set [2] shares this test system. The experiment in a line: microbe, parasite or virus in culture. The class given is cell-based, Klebsiella pneumoniae ATCC 33495. To be noted: for EC50: Klebsiella pneumoniae, read-out: EC50, half-maximal effective concentration required to suppress urease-dependent pH change.
Another data set concerns HEK293 cells. The experiment in a line: HEK293 cytotoxicity assay (Cell Titer Glo 2.0).
In another data set the target is NikA (Klebsiella pneumoniae, UniProt A6TFA3). The class given is binding. To be noted: for n (stoichiometry, ITC) / ∆H / −T∆S: 37 °C; for n (stoichiometry, ITC) / ∆H / −T∆S / -∆TS: pH 7.5; for -∆TS: Fig S13, 37 °C; for Kd: read-out: KD for NikA (ITC), 25 mM Tris-HCl, 150 mM NaCl, 0.1% Triton X-100, pH 7.5, 37 °C; for fold improvement of affinity for NikA: relative to Zn-AMA.

Where [3] appears, read: K. pneumoniae, artificial urine.

NikA, sequence (A6TFA3 entry or part of it): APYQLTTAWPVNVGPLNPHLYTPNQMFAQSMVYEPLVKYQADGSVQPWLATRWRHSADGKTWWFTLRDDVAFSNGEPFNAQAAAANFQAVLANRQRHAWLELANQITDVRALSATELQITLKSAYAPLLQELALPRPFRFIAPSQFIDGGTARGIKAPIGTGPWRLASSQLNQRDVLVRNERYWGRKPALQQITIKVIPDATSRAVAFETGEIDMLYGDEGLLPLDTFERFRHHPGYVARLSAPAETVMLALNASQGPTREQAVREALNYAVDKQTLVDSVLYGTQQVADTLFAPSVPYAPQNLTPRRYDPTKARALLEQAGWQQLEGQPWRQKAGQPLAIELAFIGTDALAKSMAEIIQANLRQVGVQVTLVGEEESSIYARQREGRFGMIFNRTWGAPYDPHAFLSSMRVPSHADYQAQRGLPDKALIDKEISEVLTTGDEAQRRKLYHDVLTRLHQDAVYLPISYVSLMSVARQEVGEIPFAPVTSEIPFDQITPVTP

Regarding `CC(=O)NO` [AHA, acetohydroxamic acid, reference compound], the “Urease-dependent pH change (pH)” value in data set [1] (AHA 0.1 mM) stood at 7.94; in data set [1] (AHA 0.2 mM), 8.07; in data set [1] (AHA 0.4 mM), 7.88; in data set [1] (AHA 0.5 mM), 8.25; in data set [1] (AHA 0.8 mM), 7.28; in data set [1] (AHA 1.6 mM), 6.77. Further, the “concentration required to achieve similar urease suppression” value in data set [2] (K. pneumoniae, artificial urine, 24 h) is 12.8 mM.

For the molecule `CC(C)C[C@@H](C=O)NC(=O)[C@H](CC(C)C)NC(=O)[C@H](CC(C)C)NC(=O)OCc1ccccc1` [MG132, reference compound] (Cbz-Leu-Leu-Leu-aldehyde), the IC50 in the data set with HEK293 cells (Homo sapiens, HEK293, 48 h, read-out: IC50 (HEK293 viability)) is 0.144 µg/mL (≈ 0.303 µM). The “HEK 293T cytotoxicity assay raw signal” value was 553546 and 645337 and 439066 in the data set with HEK293 cells (MG-132 0.06 μg/mL); 287630 and 290638 and 251825 in the data set on HEK293 cells (MG-132 0.12 μg/mL); 228174 and 211174 and 145724 in the data set on HEK293 cells (MG-132 0.24 μg/mL); 127375 and 103739 and 100640 with HEK293 cells (MG-132 0.49 μg/mL); 76026 and 78297 and 72041 with HEK293 cells (MG-132 0.98 μg/mL); 47803 and 50917 and 47518 with HEK293 cells (MG-132 1.95 μg/mL). In addition, the “HEK 293T cytotoxicity assay raw signal” value in the data set on HEK293 cells (MG-132 7.81 μg/mL) is 52239 and 45457 and 61991; in the data set with HEK293 cells (MG-132 15.63 μg/mL), 62587 and 49620 and 71962; in the data set with HEK293 cells (MG-132 31.25 μg/mL), 50870 and 51533 and 85262.

As for `NC(=O)C[C@H](NC[C@H](NC[C@H](N)C(=O)O)C(=O)O)C(=O)O.[Zn+2]` [Zn-AMA(Asn)], at NikA, the “n (stoichiometry, ITC)” value was 1.14. For the same molecule, the “∆H” value at NikA is -13.1 kcal/mol. For the same molecule, the “−T∆S” value on NikA is 4.7 kcal/mol. Also, the “-∆TS” value at NikA amounted to 4.73. Moreover, the Kd at NikA worked out at 1300 ± 100 nM. Also, the “fold improvement of affinity for NikA” value at NikA was 7 fold. Moreover, the “Urease-dependent pH change (pH)” value in data set [2] was 7.81 and 7.93 and 7.88 and 7.95; in data set [2] (Zn-AMA(Asn) 0.19 μM), 7.83 and 7.99; in data set [2] (Zn-AMA(Asn) 0.39 μM), 7.94 and 7.95; in data set [2] (Zn-AMA(Asn) 3.12 μM) it was 7.74 and 7.82; in data set [2] (Zn-AMA(Asn) 6.25 μM), 7.67 and 7.74; in data set [2] (Zn-AMA(Asn) 12.5 μM), 7.43 and 7.67. The “Urease-dependent pH change (pH)” value was 7.11 and 7.36 in data set [2] (Zn-AMA(Asn) 25 μM); 6.62 and 7.12 in data set [2] (Zn-AMA(Asn) 50 μM); 6.33 and 6.91 in data set [2] (Zn-AMA(Asn) 100 μM); 6.43 and 6.83 in data set [2] (Zn-AMA(Asn) 200 μM). Further, the EC50 in data set [2] (setting [3]) came out at 24000 ± 6000 nM.

Consider `N[C@@H](CN[C@@H](CN[C@@H](Cc1cnc[nH]1)C(=O)O)C(=O)O)C(=O)O.[Zn+2]` [Zn-AMA(His)], for which, on NikA, the “n (stoichiometry, ITC)” value is listed as 0.76. Further, the “∆H” value at NikA was -13.1 kcal/mol. Moreover, at NikA, the “−T∆S” value came to 4.5 kcal/mol. For the same molecule, the “-∆TS” value on NikA is on record as 4.48. For the same molecule, on NikA, the Kd was determined as 800 ± 100 nM. Also, the “fold improvement of affinity for NikA” value at NikA was determined as 7 fold. In addition, the “Urease-dependent pH change (pH)” value in data set [2] is 7.86 and 7.89 and 7.93 and 7.91; in data set [2] (Zn-AMA(His) 0.19 μM), 7.92 and 7.89; in data set [2] (Zn-AMA(His) 0.39 μM) it was 7.95 and 7.91; in data set [2] (Zn-AMA(His) 3.12 μM) it was 7.87 and 7.86; in data set [2] (Zn-AMA(His) 6.25 μM), 7.78 and 7.90; in data set [2] (Zn-AMA(His) 12.5 μM), 7.75 and 7.83. Moreover, the “Urease-dependent pH change (pH)” value in data set [2] (Zn-AMA(His) 25 μM) is 7.73 and 7.87; in data set [2] (Zn-AMA(His) 50 μM), 7.68 and 7.86; in data set [2] (Zn-AMA(His) 100 μM), 7.57 and 7.81; in data set [2] (Zn-AMA(His) 200 μM) it was 7.66 and 7.82. Further, the EC50 in data set [2] (setting [3]) is above 200000 nM.

These data come from publication PMC11091072, “Targeting bacterial nickel transport with aspergillomarasmine A suppresses virulence-associated Ni-dependent enzymes” (Nature Communications, 2024).
